From ChEMBL document CHEMBL1201862, “PubChem BioAssay data set” (2004)
Calls of active or inactive are those of the source.

Columns and labels:
[1] = NIH-3T3 fibroblast cytotoxicity, dose response, cytotoxicity control, cell-based, fluorescence, Alamar Blue, secondary assay (AID 2327); assay type: functional;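 further: NIH-3T3 mouse fibroblasts cultured with fluconazole at 8 µg/mL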
[2] = molecular target: T1, Ubiquitin-conjugating enzyme E2 N (Homo sapiens, UniProt P61088); assay type: functional;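 further: Dose-response confirmation in a TR-FRET assay detecting UBC13-driven polyubiquitin chain formation, inhibition measured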
T1 sequence (P61088 whole entry): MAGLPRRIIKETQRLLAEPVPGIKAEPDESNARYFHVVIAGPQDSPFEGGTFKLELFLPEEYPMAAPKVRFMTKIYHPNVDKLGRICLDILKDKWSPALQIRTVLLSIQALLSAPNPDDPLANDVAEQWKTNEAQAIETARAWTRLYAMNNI

[3] = DRD fibroblast viability loss – cell-based, non-viral oncogenic, luminescence, dose response (AID 1934); assay type: functional; settings: Homo sapiens
[4] = fluconazole-exposed Candida albicans growth modulators – fluorescence, retest, confirmation (AID 2467); assay type: functional, cell-based
[5] = molecular target: Voltage-gated inwardly rectifying potassium channel KCNH2 (Homo sapiens, UniProt Q12809); settings: Potency;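 further: confirmatory quantitative high-throughput screen measuring inhibition of hERG channel activity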
Sequence of Voltage-gated inwardly rectifying potassium channel KCNH2 (Q12809 whole entry): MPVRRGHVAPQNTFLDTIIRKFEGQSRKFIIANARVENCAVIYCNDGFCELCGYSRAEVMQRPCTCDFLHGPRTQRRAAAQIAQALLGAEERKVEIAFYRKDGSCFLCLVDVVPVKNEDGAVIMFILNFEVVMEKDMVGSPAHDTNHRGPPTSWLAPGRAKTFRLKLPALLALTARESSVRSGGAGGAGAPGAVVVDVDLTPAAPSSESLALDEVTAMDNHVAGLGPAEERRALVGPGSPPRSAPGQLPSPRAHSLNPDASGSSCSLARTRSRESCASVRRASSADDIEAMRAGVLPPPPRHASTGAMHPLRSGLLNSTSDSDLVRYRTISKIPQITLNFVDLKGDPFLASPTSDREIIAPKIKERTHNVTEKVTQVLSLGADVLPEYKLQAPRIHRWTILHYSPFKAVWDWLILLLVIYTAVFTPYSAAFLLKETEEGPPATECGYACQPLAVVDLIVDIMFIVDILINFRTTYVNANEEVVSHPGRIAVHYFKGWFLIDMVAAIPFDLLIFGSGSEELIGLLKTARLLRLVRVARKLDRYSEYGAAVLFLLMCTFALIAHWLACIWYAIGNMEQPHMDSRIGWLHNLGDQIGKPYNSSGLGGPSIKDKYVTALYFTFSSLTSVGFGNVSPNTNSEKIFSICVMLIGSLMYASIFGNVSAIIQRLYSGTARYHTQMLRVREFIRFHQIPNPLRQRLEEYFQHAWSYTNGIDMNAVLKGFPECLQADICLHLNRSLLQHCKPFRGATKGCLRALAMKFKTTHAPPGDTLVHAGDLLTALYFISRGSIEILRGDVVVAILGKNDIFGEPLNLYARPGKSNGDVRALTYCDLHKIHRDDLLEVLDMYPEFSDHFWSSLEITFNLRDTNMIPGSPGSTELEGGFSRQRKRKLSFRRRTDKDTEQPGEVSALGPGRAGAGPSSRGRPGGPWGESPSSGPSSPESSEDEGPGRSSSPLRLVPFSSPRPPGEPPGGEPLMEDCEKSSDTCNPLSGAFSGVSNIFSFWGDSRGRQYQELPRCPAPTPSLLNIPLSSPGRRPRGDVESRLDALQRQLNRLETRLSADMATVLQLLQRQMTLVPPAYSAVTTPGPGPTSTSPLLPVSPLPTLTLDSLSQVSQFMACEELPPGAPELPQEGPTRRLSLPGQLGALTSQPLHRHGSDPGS

[6] = molecular target: 5-hydroxytryptamine receptor 2A (Mus musculus, UniProt P35363); assay type: functional, cell-based;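 further: CHO-K1 cells with tagged receptor and beta-arrestin; agonist potency measured as compound-induced activation of the receptor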
Sequence of 5-hydroxytryptamine receptor 2A (P35363 whole entry): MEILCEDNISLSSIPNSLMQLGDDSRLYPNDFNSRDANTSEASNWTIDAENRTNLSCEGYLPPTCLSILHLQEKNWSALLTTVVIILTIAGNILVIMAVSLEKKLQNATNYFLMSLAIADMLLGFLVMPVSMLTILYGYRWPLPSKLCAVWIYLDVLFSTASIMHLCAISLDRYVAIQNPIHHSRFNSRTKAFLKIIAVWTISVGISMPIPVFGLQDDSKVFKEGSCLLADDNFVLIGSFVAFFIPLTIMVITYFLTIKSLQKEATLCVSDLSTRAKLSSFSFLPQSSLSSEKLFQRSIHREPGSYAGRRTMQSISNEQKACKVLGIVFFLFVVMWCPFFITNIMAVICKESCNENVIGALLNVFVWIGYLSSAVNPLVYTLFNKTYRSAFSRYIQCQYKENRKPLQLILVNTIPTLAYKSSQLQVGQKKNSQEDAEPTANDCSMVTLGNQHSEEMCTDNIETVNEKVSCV

BJ [7] = assay: cells; assay type: functional, cell-based; settings: Homo sapiens
BJ [8] = assay: BJ-TERT-LT-ST fibroblast viability loss – cell-based, RAS-independent, luminescence, dose response (AID 1935); assay type: functional; settings: Homo sapiens;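 further: BJ fibroblasts immortalized with TERT plus LT and ST oncogenes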
Mu-type opioid receptor = Mu-type opioid receptor (Homo sapiens, UniProt P35372); assay type: functional, cell-based;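 further: U2OS cells with beta-arrestin recruitment to OPRM1 by beta-gal complementation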
Sequence of Mu-type opioid receptor (P35372 whole entry): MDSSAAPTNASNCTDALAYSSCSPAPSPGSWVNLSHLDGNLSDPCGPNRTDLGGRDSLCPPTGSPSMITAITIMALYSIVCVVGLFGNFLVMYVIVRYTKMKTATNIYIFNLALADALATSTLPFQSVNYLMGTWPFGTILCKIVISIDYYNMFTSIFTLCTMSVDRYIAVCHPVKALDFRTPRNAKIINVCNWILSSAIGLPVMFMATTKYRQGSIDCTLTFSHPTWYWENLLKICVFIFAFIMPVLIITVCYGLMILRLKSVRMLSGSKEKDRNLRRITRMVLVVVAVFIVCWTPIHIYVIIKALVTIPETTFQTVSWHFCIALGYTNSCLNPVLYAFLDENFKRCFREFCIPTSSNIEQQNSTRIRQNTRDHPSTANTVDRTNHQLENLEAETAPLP

BJ [9] = assay: BJ-TERT fibroblast viability loss – cell-based, RAS-independent, luminescence, dose response (AID 1933); assay type: functional; settings: Homo sapiens
[10] = molecular target: Latent membrane protein 1 (Human herpesvirus 4 (strain B95-8), UniProt P03230); assay: LMP1 TES1 pathway selectivity over dsRED control – imaging, HEK293T, dual-color eGFP/dsRED, cherry-picks, selectivity assay for LMP1 NF-kB inhibitor project, dose response (AID 588398); assay type: functional, cell-based
Sequence of Latent membrane protein 1 (P03230 whole entry): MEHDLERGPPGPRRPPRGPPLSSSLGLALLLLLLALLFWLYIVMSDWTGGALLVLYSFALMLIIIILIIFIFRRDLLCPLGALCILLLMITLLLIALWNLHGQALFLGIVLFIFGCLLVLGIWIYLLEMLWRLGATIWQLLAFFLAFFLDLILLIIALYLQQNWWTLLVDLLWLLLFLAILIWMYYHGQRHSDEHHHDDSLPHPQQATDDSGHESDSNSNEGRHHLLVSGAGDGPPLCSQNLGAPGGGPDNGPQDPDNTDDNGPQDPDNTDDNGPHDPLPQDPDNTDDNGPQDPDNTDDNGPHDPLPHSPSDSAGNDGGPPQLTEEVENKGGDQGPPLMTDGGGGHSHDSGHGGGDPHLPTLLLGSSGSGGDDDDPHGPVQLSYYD

Cysteine protease ATG4B = Cysteine protease ATG4B (Homo sapiens, UniProt Q9Y4P1); assay type: functional;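 further: Fluorescence-based dose-response confirmation assay measuring inhibition of ATG4B activity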
Sequence of Cysteine protease ATG4B (Q9Y4P1 whole entry): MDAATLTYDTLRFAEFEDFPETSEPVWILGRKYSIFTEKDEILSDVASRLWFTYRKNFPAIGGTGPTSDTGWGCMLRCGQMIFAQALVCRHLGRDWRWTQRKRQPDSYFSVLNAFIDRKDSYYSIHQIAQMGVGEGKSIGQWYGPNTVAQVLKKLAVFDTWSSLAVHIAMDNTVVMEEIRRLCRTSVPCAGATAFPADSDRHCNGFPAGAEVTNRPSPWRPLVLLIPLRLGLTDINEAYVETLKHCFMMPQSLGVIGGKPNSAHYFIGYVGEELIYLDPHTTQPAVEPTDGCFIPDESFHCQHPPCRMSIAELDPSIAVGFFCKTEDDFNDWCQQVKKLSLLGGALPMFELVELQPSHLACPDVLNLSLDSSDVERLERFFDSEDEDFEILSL

Phospholipase A2 = Phospholipase A2 (Homo sapiens, UniProt P04054); assay type: functional;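 further: confirmatory dose-response counterscreen on phospholipase A2, testing hits that came from an ultra-high-throughput screen for ATG4B inhibitors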
Sequence of Phospholipase A2 (P04054 whole entry): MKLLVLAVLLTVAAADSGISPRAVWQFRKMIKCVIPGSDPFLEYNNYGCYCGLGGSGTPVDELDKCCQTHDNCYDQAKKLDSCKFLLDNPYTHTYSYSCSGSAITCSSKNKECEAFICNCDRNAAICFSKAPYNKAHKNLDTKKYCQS

HEK293 [11] = assay: inhibition of NOD1-driven NF-kB reporter – cell-based, luminescence, uHTS, primary screen (AID 1578); assay type: functional; settings: Homo sapiens
[12] = molecular target: Nucleotide-binding oligomerization domain-containing protein 2 (Homo sapiens, UniProt Q9HC29); assay: inhibition of NOD2-driven NF-kB reporter – cell-based, luminescence, uHTS, HEK293 (AID 1566); assay type: functional
Sequence of Nucleotide-binding oligomerization domain-containing protein 2 (Q9HC29 whole entry, the tested form may be a part): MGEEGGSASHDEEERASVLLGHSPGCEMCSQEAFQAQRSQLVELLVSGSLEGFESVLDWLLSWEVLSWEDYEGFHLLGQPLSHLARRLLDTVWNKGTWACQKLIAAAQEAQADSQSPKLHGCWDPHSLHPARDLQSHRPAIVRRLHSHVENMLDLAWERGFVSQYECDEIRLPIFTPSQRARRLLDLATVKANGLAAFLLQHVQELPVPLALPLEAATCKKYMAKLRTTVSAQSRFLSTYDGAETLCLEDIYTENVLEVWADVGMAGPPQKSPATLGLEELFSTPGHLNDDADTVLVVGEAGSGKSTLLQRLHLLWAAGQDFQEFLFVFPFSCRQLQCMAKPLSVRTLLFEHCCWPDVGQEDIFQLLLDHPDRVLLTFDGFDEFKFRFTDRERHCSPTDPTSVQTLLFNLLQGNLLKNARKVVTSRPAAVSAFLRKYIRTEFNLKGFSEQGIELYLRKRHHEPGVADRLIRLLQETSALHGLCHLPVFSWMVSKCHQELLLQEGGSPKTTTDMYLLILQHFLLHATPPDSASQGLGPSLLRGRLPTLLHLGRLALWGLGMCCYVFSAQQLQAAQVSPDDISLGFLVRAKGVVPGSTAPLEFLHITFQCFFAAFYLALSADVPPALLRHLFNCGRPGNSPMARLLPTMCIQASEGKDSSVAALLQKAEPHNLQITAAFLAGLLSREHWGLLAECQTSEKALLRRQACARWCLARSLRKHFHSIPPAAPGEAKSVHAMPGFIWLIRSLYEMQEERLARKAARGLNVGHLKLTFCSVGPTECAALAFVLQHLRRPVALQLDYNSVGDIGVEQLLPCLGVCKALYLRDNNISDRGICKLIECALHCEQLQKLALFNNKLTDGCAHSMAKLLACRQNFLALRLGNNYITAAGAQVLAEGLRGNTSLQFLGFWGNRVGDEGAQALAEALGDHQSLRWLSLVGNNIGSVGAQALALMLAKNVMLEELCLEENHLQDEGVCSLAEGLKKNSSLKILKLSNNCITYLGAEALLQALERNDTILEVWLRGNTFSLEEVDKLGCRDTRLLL

H4 [13] = assay: Inhibitors of Prion Protein 5' UTR mRNA Measured in Cell-Based System Using Plate Reader - 2078-01_Inhibitor_Dose_DryPowder_Activity. [Related pubchem assays (depositor defined):AID488894]; assay type: functional; settings: Homo sapiens
HEK293 [14] = assay: cells; assay type: functional, cell-based; settings: Homo sapiens
HEK293 [15] = assay: cells; settings: Homo sapiens
HEK293 [16] = assay: cells; assay type: functional, cell-based; settings: Homo sapiens; remark: listed apart in the source
[17] = HEK-293T viability loss after treatment – luminescence, T-cell screen hits, cytotoxicity control for TCR NF-kB inhibitor project, dose response (AID 489026); assay type: functional, cell-based;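 further: cells exposed to compound about 14 hours before the viability readout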
[18] = Luminescence-based counterscreen assay for KLF5 inhibitors: dose response cell-based high throughput screening assay to identify cytotoxic compounds using the IEC-6 intestinal epithelial cell line. [Related pubchem assays: 1700 (Primary screen.), 1834 (Confirmation screen.), 1858 (Summary AID.), 1905 (Counterscreen.)]; assay type: functional
H4 [19] = assay: inhibitors of control reporter signal in H4 cells – cell-based, plate reader, dry powder samples, counter-screen for prion reporter project, dose response (AID 540255); assay type: functional; settings: Homo sapiens
Tumor necrosis factor = Tumor necrosis factor (Homo sapiens, UniProt P01375); assay: analog potency on TNFa NF-kB signaling – cell-based, revised, SAR follow-up (AID 2337); assay type: functional
Sequence of Tumor necrosis factor (P01375 whole entry): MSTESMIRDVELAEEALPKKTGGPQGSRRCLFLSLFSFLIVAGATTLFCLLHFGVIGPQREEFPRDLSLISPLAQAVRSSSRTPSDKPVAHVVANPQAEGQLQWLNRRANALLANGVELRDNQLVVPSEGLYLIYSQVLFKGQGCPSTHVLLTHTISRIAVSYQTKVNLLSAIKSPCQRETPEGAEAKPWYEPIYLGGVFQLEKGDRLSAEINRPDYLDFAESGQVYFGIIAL

HEK293 [20] = assay: cells; assay type: functional, cell-based; settings: Homo sapiens; remark: listed apart in the source
HEK293 [21] = assay: NOD2 signaling inhibitors in MDP-stimulated cells, cell-based, uHTS, luminescence (AID 2001); assay type: functional; settings: Homo sapiens
[22] = molecular target: T2, Nucleotide-binding oligomerization domain-containing protein 1 (Homo sapiens, UniProt Q9Y239); assay: blockers of NOD1 pathway activity – revised, SAR follow-up (AID 2333); assay type: functional
T2 sequence (Q9Y239 whole entry): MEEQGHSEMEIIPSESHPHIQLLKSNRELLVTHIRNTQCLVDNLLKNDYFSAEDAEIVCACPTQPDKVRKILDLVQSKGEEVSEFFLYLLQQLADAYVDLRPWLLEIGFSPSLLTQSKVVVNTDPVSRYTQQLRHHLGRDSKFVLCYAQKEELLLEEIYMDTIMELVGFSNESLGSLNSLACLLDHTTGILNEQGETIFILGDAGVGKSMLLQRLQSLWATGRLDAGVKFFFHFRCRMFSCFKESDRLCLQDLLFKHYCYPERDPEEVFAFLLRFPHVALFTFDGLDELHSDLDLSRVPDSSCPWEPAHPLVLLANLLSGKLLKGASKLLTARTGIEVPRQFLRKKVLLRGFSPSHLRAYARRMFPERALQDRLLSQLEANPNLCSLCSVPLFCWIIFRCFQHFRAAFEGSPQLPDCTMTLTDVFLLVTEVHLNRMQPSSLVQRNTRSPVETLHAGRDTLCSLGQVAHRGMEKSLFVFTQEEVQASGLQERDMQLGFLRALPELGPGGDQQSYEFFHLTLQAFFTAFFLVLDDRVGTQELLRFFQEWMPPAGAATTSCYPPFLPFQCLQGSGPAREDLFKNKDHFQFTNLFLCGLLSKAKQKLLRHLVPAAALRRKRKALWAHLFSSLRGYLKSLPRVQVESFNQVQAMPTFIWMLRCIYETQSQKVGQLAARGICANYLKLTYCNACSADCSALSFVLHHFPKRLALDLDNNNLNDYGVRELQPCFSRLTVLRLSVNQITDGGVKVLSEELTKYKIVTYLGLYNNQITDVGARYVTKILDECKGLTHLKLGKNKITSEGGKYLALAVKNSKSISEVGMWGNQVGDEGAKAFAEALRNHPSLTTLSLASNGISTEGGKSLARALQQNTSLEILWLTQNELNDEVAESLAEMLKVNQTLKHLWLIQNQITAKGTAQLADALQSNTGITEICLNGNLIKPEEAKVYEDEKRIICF

[23] = molecular target: Eukaryotic translation initiation factor 4H (Homo sapiens, UniProt Q15056); assay: eIF4H binding inhibition – biochemical, uHTS, fluorescence polarization, translation initiation inhibitor project, primary screen (AID 2012)
[24] = molecular target: T3, Apoptotic protease-activating factor 1 (Homo sapiens, UniProt O14727); assay: activation of Apaf-1 mediated apoptosis – fluorescent, uHTS hits, dose response (AID 588554); assay type: functional
T3 sequence (O14727 whole entry): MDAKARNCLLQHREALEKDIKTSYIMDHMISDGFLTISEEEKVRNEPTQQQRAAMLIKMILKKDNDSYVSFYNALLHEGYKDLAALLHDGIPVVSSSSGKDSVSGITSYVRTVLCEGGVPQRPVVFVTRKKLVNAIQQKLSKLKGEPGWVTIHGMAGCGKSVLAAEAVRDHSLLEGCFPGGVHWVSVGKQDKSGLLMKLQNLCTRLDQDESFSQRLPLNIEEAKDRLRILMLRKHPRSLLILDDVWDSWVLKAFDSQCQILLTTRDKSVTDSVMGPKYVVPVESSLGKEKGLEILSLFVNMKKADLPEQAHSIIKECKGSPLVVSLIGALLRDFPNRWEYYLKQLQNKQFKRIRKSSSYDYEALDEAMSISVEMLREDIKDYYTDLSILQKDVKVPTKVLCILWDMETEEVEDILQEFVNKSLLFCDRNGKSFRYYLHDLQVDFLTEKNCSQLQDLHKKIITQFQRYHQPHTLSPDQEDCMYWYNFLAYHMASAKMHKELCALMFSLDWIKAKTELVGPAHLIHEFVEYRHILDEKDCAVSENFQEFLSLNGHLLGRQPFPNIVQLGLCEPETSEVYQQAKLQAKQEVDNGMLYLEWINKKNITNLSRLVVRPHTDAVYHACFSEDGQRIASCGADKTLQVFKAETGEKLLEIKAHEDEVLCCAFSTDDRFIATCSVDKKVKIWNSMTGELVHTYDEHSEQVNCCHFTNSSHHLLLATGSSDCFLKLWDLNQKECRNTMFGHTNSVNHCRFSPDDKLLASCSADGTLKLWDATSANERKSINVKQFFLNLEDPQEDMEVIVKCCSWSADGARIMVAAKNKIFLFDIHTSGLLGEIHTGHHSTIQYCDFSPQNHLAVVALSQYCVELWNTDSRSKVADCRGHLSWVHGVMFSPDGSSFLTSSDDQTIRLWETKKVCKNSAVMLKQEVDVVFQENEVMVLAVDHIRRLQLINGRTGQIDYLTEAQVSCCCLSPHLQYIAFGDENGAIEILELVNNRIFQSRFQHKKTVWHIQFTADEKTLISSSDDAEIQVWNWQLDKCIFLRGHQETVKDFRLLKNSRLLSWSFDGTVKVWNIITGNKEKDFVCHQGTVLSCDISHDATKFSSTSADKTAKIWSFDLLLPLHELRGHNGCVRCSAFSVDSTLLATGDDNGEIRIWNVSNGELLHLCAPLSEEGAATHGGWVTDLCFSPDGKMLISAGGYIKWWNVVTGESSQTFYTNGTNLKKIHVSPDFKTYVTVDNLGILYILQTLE

[25] = molecular target: Induced myeloid leukemia cell differentiation protein Mcl-1 (Homo sapiens, UniProt Q07820); assay type: functional
Sequence of Induced myeloid leukemia cell differentiation protein Mcl-1 (Q07820 whole entry): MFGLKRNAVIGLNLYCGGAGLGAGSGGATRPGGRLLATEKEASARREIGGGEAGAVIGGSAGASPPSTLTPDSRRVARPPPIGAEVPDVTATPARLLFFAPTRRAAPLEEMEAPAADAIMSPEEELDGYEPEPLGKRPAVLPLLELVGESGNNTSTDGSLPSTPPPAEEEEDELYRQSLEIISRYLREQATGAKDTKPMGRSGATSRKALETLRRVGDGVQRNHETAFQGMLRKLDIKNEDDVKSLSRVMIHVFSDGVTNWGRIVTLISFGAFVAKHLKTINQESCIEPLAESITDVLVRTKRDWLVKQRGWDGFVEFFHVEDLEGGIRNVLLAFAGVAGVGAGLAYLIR

[26] = molecular target: Polyadenylate-binding protein 1 (Homo sapiens, UniProt P11940); assay: blockers of PABP interaction with poly(A) – biochemical, fluorescence polarization, […] (AID 2014)
[27] = molecular target: Beta-adrenergic receptor kinase 1 (Homo sapiens, UniProt P25098); assay: aptamer displacement from bead-bound GRK2 – biochemical, cherry pick 1, bead flow cytometry, dose response (AID 504500)
[28] = Mcl1-dependent cancer cell viability – HMC-1-8 cells, luminescence, dry powder, selectivity assay for A1 inhibitor project, dose response (AID 504415); assay type: functional, cell-based; settings: Homo sapiens
HEK293 [29] = assay: SAR Analysis of small molecule inhibitors of T-cell specific antigen receptor-induced NF-kB activation in a HEK-293T cell line using a luminescence assay. [Related pubchem assays (depositor defined):AID435003, AID435012, AID489026]; assay type: functional, cell-based; settings: Homo sapiens
Jurkat = assay: SAR Analysis of small molecule inhibitors of T-cell specific antigen receptor-induced NF-kB activation in a Jurkat cell line using a luminescence assay. [Related pubchem assays (depositor defined):AID435003, AID435012, AID465]; assay type: functional, cell-based; settings: Homo sapiens
HEK293 [30] = assay: HEK293T cell viability loss, resazurin readout – resazurin fluorescence, cytotoxicity control for NF-kB activator project, SAR follow-up (AID 493251); assay type: functional, cell-based; settings: Homo sapiens

SMILES: NC[C@@H]1O[C@H](C23CC4CC(CC(C4)C2)C3)Cc2c1ccc(O)c2O
- EC50 [1]: > 150 µM (inactive)
- IC50 [2]: > 20 µM (inactive)
- EC50 [3]: 13.1 µM (active)
- EC50 [4]: 4.44 µM (active)
- AC50 [5]: 22.4 µM (inconclusive)
- EC50 [6]: 1.2 µM (active)
- EC50 (BJ [7]): > 150 µM (not active)
- EC50 (BJ [8]): 13.7 µM (inconclusive)
- EC50 (Mu-type opioid receptor): 92.4 µM (inactive)
- EC50 (BJ [9]): 10.3 µM (inconclusive)

SMILES: CCOc1ccc(C(C)=O)cc1COc1cccnc1[N+](=O)[O-]
- EC50 [3]: 21.9 µM (active)
- EC50 (BJ [7]): 32.2 µM (active)
- EC50 (BJ [8]): > 150 µM (inconclusive)
- EC50 (BJ [9]): 23.1 µM (active)
- AC50 [10]: 80.9 µM (active)

SMILES: CC(C)c1ccc(NC2CCCN(C(=O)c3cc(C(C)C)n[nH]3)C2)cc1 (centres undefined)
- IC50 (Cysteine protease ATG4B): 16.8 µM (active)
- IC50 (Phospholipase A2): 12.2 µM (active)

SMILES: CC(C)(C)c1ccc(C(=O)O/N=C(\N)c2ccccn2)cc1
- EC50 (HEK293 [11]): 2.73 µM (active)
- EC50 [12]: 0.04 µM (active)
- AC50 (H4 [13]): 0.032 µM (active)
- IC50 (HEK293 [14]): > 20 µM (inactive)
- IC50 (HEK293 [15]): > 20 µM (inactive)
- IC50 (HEK293 [16]): < 0.312 µM (active)
- IC50 [17]: > 80 µM (inactive)
- IC50 [18]: 23.1 µM (not active)
- AC50 (H4 [19]): 0.034 µM (active)
- IC50 (Tumor necrosis factor): 0.952 µM (active)
- IC50 (HEK293 [20]): > 20 µM (inactive)
- IC50 (HEK293 [21]): 3.04 µM (active)
- IC50 [22]: 2 µM (active)

SMILES: C=C(C)C(=O)Nc1cccc(C2=NOC3(C2)C[C@@H](C(N)=O)N(C(=O)c2ccc(Cl)cc2)C3)c1 (some centres undefined)
- IC50 [23]: 0.7 µM (active)
- EC50 [24]: 2.35 µM (active)
- IC50 [25]: 1.54 µM (active)
- IC50 [26]: 9.01 µM (active)
- EC50 [27]: 0.73 µM (active)

SMILES: O=c1oc2ccccc2c(Sc2ccccc2)c1[N+](=O)[O-]
- AC50 [28]: 56.1 µM (active)

SMILES: COc1ccc(C(NC(C)=O)c2ccc3cccnc3c2O)cc1 (centres undefined)
- IC50 (HEK293 [29]): 6.35 µM (active)
- IC50 (Jurkat): 4.23 µM (active)
- IC50 (HEK293 [30]): 16.5 µM (active)
